Experimental data from US9771369B2, “Compounds and methods for kinase modulation, and indications therefor” (Plexxikon Inc., priority 2014, dated 2017).

Target: c-Kit kinase (Homo sapiens (Human), UniProt P10721)
Experiment: c-Kit biochemical assay (AlphaScreen kinase activity)
Outline: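 IC50 values come from 8-point, 1:3 compound titrations measuring inhibition of peptide phosphorylation by c-Kit (commercial or His-tagged E. coli-expressed) over 1 h at room temperature, read by AlphaScreen PY30/streptavidin beads. Low-ATP version: 10 μM ATP, 100 nM biotin-(E4Y)3; high-ATP version: 100 μM ATP, 30 nM biotin-(E4Y)10.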

Chain of c-Kit kinase (P10721 26-976): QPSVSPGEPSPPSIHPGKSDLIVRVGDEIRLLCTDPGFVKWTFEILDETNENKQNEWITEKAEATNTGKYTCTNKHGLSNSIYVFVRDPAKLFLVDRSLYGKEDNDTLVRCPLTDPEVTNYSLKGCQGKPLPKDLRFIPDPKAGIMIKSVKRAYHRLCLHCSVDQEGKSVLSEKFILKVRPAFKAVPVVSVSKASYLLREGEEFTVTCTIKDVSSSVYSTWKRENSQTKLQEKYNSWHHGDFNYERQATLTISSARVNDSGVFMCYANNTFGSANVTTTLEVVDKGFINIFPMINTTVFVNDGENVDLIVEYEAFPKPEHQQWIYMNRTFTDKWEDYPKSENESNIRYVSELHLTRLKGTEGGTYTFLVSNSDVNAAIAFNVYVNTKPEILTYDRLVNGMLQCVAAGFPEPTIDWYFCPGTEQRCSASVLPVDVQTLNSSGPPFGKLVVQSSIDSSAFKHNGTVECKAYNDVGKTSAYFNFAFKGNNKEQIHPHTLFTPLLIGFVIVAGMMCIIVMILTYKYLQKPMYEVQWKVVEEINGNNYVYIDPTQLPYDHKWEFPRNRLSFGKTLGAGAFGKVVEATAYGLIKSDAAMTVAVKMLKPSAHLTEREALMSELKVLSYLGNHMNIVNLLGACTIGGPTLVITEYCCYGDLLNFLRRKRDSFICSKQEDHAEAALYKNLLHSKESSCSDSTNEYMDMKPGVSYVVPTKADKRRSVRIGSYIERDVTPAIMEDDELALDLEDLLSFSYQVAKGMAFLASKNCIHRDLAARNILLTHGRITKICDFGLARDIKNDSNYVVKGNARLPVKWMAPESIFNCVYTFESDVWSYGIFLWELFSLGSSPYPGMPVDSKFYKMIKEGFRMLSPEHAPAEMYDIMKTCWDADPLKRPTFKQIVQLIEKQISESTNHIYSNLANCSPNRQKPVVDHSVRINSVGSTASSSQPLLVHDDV

Structure (SMILES): Cc1nc(C2CCN(c3ncnc4[nH]c(-c5ccc(F)cc5)cc34)CC2)[nH]c1-c1ccccc1 [P-3002, 6-(4-fluorophenyl)-4-[4-(4-methyl-5-phenyl-1H-imidazol-2-yl)-1-piperidyl]-7H-pyrrolo[2,3-d]pyrimidine]
- IC50: 0.0001 to 1 µM

Structure (SMILES): COc1cc(-c2cc3c(N4CCC(c5nc(C)c(-c6ccccc6)[nH]5)CC4)ncnc3[nH]2)ccn1 [P-3003, 6-(2-methoxy-4-pyridyl)-4-[4-(4-methyl-5-phenyl-1H-imidazol-2-yl)-1-piperidyl]-7H-pyrrolo[2,3-d]pyrimidine]
- IC50: 0.0001 to 1 µM

Structure (SMILES): Cc1cc2c(N3CCC(c4nc(C)c(-c5ccccc5)[nH]4)CC3)ncnc2[nH]1 [P-3004, 6-methyl-4-[4-(4-methyl-5-phenyl-1H-imidazol-2-yl)-1-piperidyl]-7H-pyrrolo[2,3-d]pyrimidine]
- IC50: 10 to 300 µM

Structure (SMILES): Cc1cc2c(N3CCC(c4nc(C)c(-c5ccc(F)cc5)[nH]4)CC3)ncnc2[nH]1 [P-3005, 4-[4-[5-(4-fluorophenyl)-4-methyl-1H-imidazol-2-yl]-1-piperidyl]-6-methyl-7H-pyrrolo[2,3-d]pyrimidine]
- IC50: 1 to 10 µM

Structure (SMILES): COc1cc(-c2cc3c(N4CCC(c5nc(C)c(-c6cccc(F)c6)[nH]5)CC4)ncnc3[nH]2)ccn1 [P-3019, 4-[4-[5-(3-fluorophenyl)-4-methyl-1H-imidazol-2-yl]-1-piperidyl]-6-(2-methoxy-4-pyridyl)-7H-pyrrolo[2,3-d]pyrimidine]
- IC50: 10 to 300 µM

Structure (SMILES): Cc1nc(C2CCN(c3ncnc4[nH]c(-c5ccc(C#N)cc5)cc34)CC2)[nH]c1-c1ccc(F)cc1 [P-3020, 4-[4-[4-[5-(4-fluorophenyl)-4-methyl-1H-imidazol-2-yl]-1-piperidyl]-7H-pyrrolo[2,3-d]pyrimidin-6-yl]benzonitrile]
- IC50: 1 to 10 µM

Structure (SMILES): COc1cccc(-c2[nH]c(C3CCN(c4ncnc5[nH]c(-c6ccc(C#N)cc6)cc45)CC3)nc2C)c1 [P-3021, 4-[4-[4-[5-(3-methoxyphenyl)-4-methyl-1H-imidazol-2-yl]-1-piperidyl]-7H-pyrrolo[2,3-d]pyrimidin-6-yl]benzonitrile]
- IC50: 0.0001 to 1 µM

Structure (SMILES): COc1cccc(-c2[nH]c(C3CCN(c4ncnc5[nH]c(-c6ccnc(OC)c6)cc45)CC3)nc2C)c1 [P-3022, 4-[4-[5-(3-methoxyphenyl)-4-methyl-1H-imidazol-2-yl]-1-piperidyl]-6-(2-methoxy-4-pyridyl)-7H-pyrrolo[2,3-d]pyrimidine]
- IC50: 1 to 10 µM

Structure (SMILES): COc1cc(-c2cc3c(N4CCC(c5nc(C)c(-c6ccc(OC)c(C)c6)[nH]5)CC4)ncnc3[nH]2)ccn1 [P-3023, 4-[4-[5-(4-methoxy-3-methyl-phenyl)-4-methyl-1H-imidazol-2-yl]-1-piperidyl]-6-(2-methoxy-4-pyridyl)-7H-pyrrolo[2,3-d]pyrimidine]
- IC50: 0.0001 to 1 µM

Structure (SMILES): CCOc1cccc(-c2[nH]c(C3CCN(c4ncnc5[nH]c(-c6ccc(F)cc6)cc45)CC3)nc2C)c1 [P-3024, 4-[4-[5-(3-ethoxyphenyl)-4-methyl-1H-imidazol-2-yl]-1-piperidyl]-6-(4-fluorophenyl)-7H-pyrrolo[2,3-d]pyrimidine]
- IC50: 1 to 10 µM

Structure (SMILES): CCOc1cccc(-c2[nH]c(C3CCN(c4ncnc5[nH]c(-c6ccc(C#N)cc6)cc45)CC3)nc2C)c1 [P-3025, 4-[4-[4-[5-(3-ethoxyphenyl)-4-methyl-1H-imidazol-2-yl]-1-piperidyl]-7H-pyrrolo[2,3-d]pyrimidin-6-yl]benzonitrile]
- IC50: 1 to 10 µM

Structure (SMILES): CCOc1ccc(-c2[nH]c(C3CCN(c4ncnc5[nH]c(-c6ccc(F)cc6)cc45)CC3)nc2C)cc1 [P-3026, 4-[4-[5-(4-ethoxyphenyl)-4-methyl-1H-imidazol-2-yl]-1-piperidyl]-6-(4-fluorophenyl)-7H-pyrrolo[2,3-d]pyrimidine]
- IC50: 1 to 10 µM

Structure (SMILES): CCOc1ccc(-c2[nH]c(C3CCN(c4ncnc5[nH]c(-c6ccc(C#N)cc6)cc45)CC3)nc2C)cc1 [P-3027, 4-[4-[4-[5-(4-ethoxyphenyl)-4-methyl-1H-imidazol-2-yl]-1-piperidyl]-7H-pyrrolo[2,3-d]pyrimidin-6-yl]benzonitrile]
- IC50: 1 to 10 µM

Structure (SMILES): COc1ccc(-c2[nH]c(C3CCN(c4ncnc5[nH]c(-c6ccc(F)cc6)cc45)CC3)nc2C)cc1 [P-3028, 6-(4-fluorophenyl)-4-[4-[5-(4-methoxyphenyl)-4-methyl-1H-imidazol-2-yl]-1-piperidyl]-7H-pyrrolo[2,3-d]pyrimidine]
- IC50: 0.0001 to 1 µM

Structure (SMILES): COc1ccc(-c2[nH]c(C3CCN(c4ncnc5[nH]c(-c6ccc(F)cc6)cc45)CC3)nc2C)cc1C [P-3029, 6-(4-fluorophenyl)-4-[4-[5-(4-methoxy-3-methyl-phenyl)-4-methyl-1H-imidazol-2-yl]-1-piperidyl]-7H-pyrrolo[2,3-d]pyrimidine]
- IC50: 0.0001 to 1 µM

Structure (SMILES): COc1ccc(-c2[nH]c(C3CCN(c4ncnc5[nH]c(-c6ccc(C#N)cc6)cc45)CC3)nc2C)cc1C [P-3030, 4-[4-[4-[5-(4-methoxy-3-methyl-phenyl)-4-methyl-1H-imidazol-2-yl]-1-piperidyl]-7H-pyrrolo[2,3-d]pyrimidin-6-yl]benzonitrile]
- IC50: 0.0001 to 1 µM

Structure (SMILES): CCOc1ccc(-c2[nH]c(C3CCN(c4ncnc5[nH]c(-c6ccnc(OC)c6)cc45)CC3)nc2C)cc1 [P-3031, 4-[4-[5-(4-ethoxyphenyl)-4-methyl-1H-imidazol-2-yl]-1-piperidyl]-6-(2-methoxy-4-pyridyl)-7H-pyrrolo[2,3-d]pyrimidine]
- IC50: 1 to 10 µM

Structure (SMILES): Cc1nc(C2(C)CCN(c3ncnc4[nH]c(-c5ccc(F)cc5)cc34)CC2)[nH]c1-c1ccccc1 [P-3032, 6-(4-fluorophenyl)-4-[4-methyl-4-(4-methyl-5-phenyl-1H-imidazol-2-yl)-1-piperidyl]-7H-pyrrolo[2,3-d]pyrimidine]
- IC50: 0.0001 to 1 µM

Structure (SMILES): COc1cc(-c2cc3c(N4CCC(C)(c5nc(C)c(-c6ccccc6)[nH]5)CC4)ncnc3[nH]2)ccn1 [P-3033, 6-(2-methoxy-4-pyridyl)-4-[4-methyl-4-(4-methyl-5-phenyl-1H-imidazol-2-yl)-1-piperidyl]-7H-pyrrolo[2,3-d]pyrimidine]
- IC50: 0.0001 to 1 µM

Structure (SMILES): CCOc1cccc(-c2[nH]c(C3CCN(c4ncnc5[nH]c(-c6ccnc(OC)c6)cc45)CC3)nc2C)c1 [P-3034, 4-[4-[5-(3-ethoxyphenyl)-4-methyl-1H-imidazol-2-yl]-1-piperidyl]-6-(2-methoxy-4-pyridyl)-7H-pyrrolo[2,3-d]pyrimidine]
- IC50: 1 to 10 µM

Structure (SMILES): Cc1nc(C2CCN(c3ncnc4[nH]c(-c5ccc(F)cc5)cc34)CC2)[nH]c1-c1ccc(Cl)cc1 [P-3035, 4-[4-[5-(4-chlorophenyl)-4-methyl-1H-imidazol-2-yl]-1-piperidyl]-6-(4-fluorophenyl)-7H-pyrrolo[2,3-d]pyrimidine]
- IC50: 0.0001 to 1 µM

Structure (SMILES): COc1ccc(-c2[nH]c(C3CCN(c4ncnc5[nH]c(-c6ccc(F)cc6)cc45)CC3)nc2C)cc1OC [P-3036, 4-[4-[5-(3,4-dimethoxyphenyl)-4-methyl-1H-imidazol-2-yl]-1-piperidyl]-6-(4-fluorophenyl)-7H-pyrrolo[2,3-d]pyrimidine]
- IC50: 1 to 10 µM

Structure (SMILES): COc1cc(-c2cc3c(N4CCC(c5nc(C)c(-c6ccc(Cl)cc6)[nH]5)CC4)ncnc3[nH]2)ccn1 [P-3037, 4-[4-[5-(4-chlorophenyl)-4-methyl-1H-imidazol-2-yl]-1-piperidyl]-6-(2-methoxy-4-pyridyl)-7H-pyrrolo[2,3-d]pyrimidine]
- IC50: 0.0001 to 1 µM
